Source: US8426202B2, “Cell culture medium” (Cellca GmbH, priority 2005, dated 2013)
“And” between values parts separate entries of the source, which are not always exact repeats. Identical values can stand only once. Like-named read-outs stand apart in the source and are kept apart here.

Legend:
[1] = test system: CHO cell line that expresses an antibody; assay: Fed-batch experiment with the substances according to the invention (Example 2, Table 2); type: cell-based, Chinese hamster; parameters: Viabil.: concentration or dose not given beside the values
Source text: (§1) Feed took place at regular intervals.

[2] = test system: CHO cell line that expresses an antibody; assay: Batch experiment with the substances according to the invention (Example 1); type: cell-based, Chinese hamster; settings: batch mode, substance 0.5-1 g/l, basal medium glucose 4.7 g/l, glutamine […]
Procedure: Cells were stored in the gas phase of liquid nitrogen. One to two ampoules were thawed in nutrient medium preheated to 37° C. and transferred to spinner bottles, shaking flasks or T-bottles. In the first few days of cultivation the medium was changed, depending on the clone.
Depending on the clone, cells were split either every second day or every third day or after two and three days alternately into new medium, i.e. a portion of the cell suspension was removed from culture and a smaller portion of the cell suspension was reused as inoculum for the next culture. This inoculum was made up with fresh prewarmed nutrient medium. Cells were incubated at 37° C. in an incubator with a CO2 atmosphere. An alternative for incubating cells was cultivation in an incubation chamber at 37° C., in this way cells were held in culture for several passages. A passage means a cultivation time of two to three days. At various points of time, cell suspension was taken from strain maintenance and used as inoculum for experiments. The experiments were carried out in various cultivation systems, for example in spinner bottles, T-bottles, shaking flasks, culture tubes or in controlled bioreactors.
as §1

[3] = test system: CHO cell line that expresses an antibody; settings: fed-batch, basal medium 4 mM glutamine, feed with 3 g/l Ala-Gln and 3 g/l Gly-Gln, substance 0.5-1 g/l
Procedure: (§2) A CHO cell line that expresses an antibody was used for the experiments.
The experiments were carried out either in batch mode or in fed-batch mode. When the process was carried out in fed-batch mode, the process was first started in batch mode in the above-mentioned basal medium and cells were cultivated in this manner for 1-4 days. After 1-4 days the cells were supplemented with a feed medium, i.e. the process was switched to fed-batch mode. Feed took place at regular intervals. In fed-batch experiments, a protein-free and serum-free feed medium from the company HyQ (R05.2 supplement, Cat. No.: SH30584.04, Lot No.: APF21457G) was used.
From the stock solutions, the substances were put at the desired final concentration in culture tubes. The various culture tubes prepared in this way were finally inoculated with the antibody-producing CHO-clone at a target inoculation cell concentration (1-3×10^5/ml). For this, the corresponding amount of inoculum cells was calculated and the required amount of inoculum cell suspension was centrifuged. […] In this way the desired inoculation cell concentration was adjusted in the cell suspension being investigated. The cell suspension thus prepared was proportioned in the culture tubes, which were provided with the substances according to the invention beforehand. The culture tubes were incubated at 37° C., and 8% CO2 atmosphere, with shaking. The culture tubes were cultivated for 8-11 days in the batch mode or in the fed-batch mode. Samples for offline measurement of the variables were taken from the culture vessels at regular intervals, for example daily or on every third day. The metabolic variables and cell concentrations of the samples were measured. Cell concentration and cell vitality were measured with a CeDex instrument. The metabolic variables (glucose, lactate, glutamine and ammonium) were determined with an analyzer (BioProfile 100).
(§3) The following final concentrations of the substances according to the invention were established in a nutrient medium after inoculation:
The substances according to the invention were tested under fed-batch conditions. […] The feed medium used was from the company HyQ (R05.2 supplement, Cat. No.: SH30584.04, Lot No.: APF21457G). 3 g/l alanyl-glutamine (Ala-Gin) and 3 g/l glycyl-glutamine (Gly-Gln) were added to the feed medium.

[4] = test system: CHO cell line that expresses an antibody; settings: fed-batch, glutamine-free basal and feed media, substance 0.5-1 g/l
Source text: as §2
This is a serum-free, protein-free nutrient medium. It is a ready-made, sterile-filtered nutrient medium.
After 1-4 days the cells were supplemented with a feed medium, i.e. the process was switched to fed-batch mode. Feed took place at regular intervals. In fed-batch experiments, a protein-free and serum-free feed medium from the company HyQ (R05.2 supplement, Cat. No.: SH30584.04, Lot No.: APF21457G) was used.
All substances (chemicals) used according to the invention were obtained from the company Sigma and stock solutions were prepared from them. From the stock solutions, the substances were put at the desired final concentration in culture tubes. The various culture tubes prepared in this way were finally inoculated with the antibody-producing CHO-clone at a target inoculation cell concentration (1-3×10^5/ml). For this, the corresponding amount of inoculum cells was calculated and the required amount of inoculum cell suspension was centrifuged. […] In this way the desired inoculation cell concentration was adjusted in the cell suspension being investigated. The cell suspension thus prepared was proportioned in the culture tubes, which were provided with the substances according to the invention beforehand. The culture tubes were incubated at 37° C., and 8% CO2 atmosphere, with shaking. The culture tubes were cultivated for 8-11 days in the batch mode or in the fed-batch mode. Samples for offline measurement of the variables were taken from the culture vessels at regular intervals, for example daily or on every third day. The metabolic variables and cell concentrations of the samples were measured. Cell concentration and cell vitality were measured with a CeDex instrument. The metabolic variables (glucose, lactate, glutamine and ammonium) were determined with an analyzer (BioProfile 100).
as §3
The substances according to the invention were tested under fed-batch conditions. […] The feed medium used was from the company HyQ (R05.2 supplement, Cat. No.: SH30584.04, Lot No.: APF21457G). The feed medium was glutamine-free (Table 4).

`O=C(O)C(O)C(O)C(=O)O` (centres unmarked) [Tartaric acid] was tested, and the “Total Cell Density TCD” value ([1]; day 0, fed-batch) was 1.5 E5/ml, the Viabil. ([1]; day 0, fed-batch) was 91% and the “Viable Cell Density (VCD)” value ([1]; day 0, fed-batch) was 1.37 E5/ml. For the same compound, the “Total Cell Density TCD” value ([1]; day 2, fed-batch) was 4 E5/ml and 3.9 E5/ml, the Viabil. ([1]; day 2, fed-batch) was 98% and 97% and the “Viable Cell Density (VCD)” value ([1]; day 2, fed-batch) was 3.9 E5/ml and 3.8 E5/ml. For the same compound, the “Total Cell Density TCD” value ([1]; day 5, fed-batch) was 10.4 E5/ml and 9.6 E5/ml, the Viabil. ([1]; day 5, fed-batch) was 93% and 95% and the “Viable Cell Density (VCD)” value ([1]; day 5, fed-batch) was 9.7 E5/ml and 9.1 E5/ml. The “Total Cell Density TCD” value ([1]; day 8, fed-batch) was 26.6 E5/ml and 27.7 E5/ml, the Viabil. ([1]; day 8, fed-batch) was 89% and 90% and the “Viable Cell Density (VCD)” value ([1]; day 8, fed-batch) was 23.7 E5/ml and 25 E5/ml. The Gln ([2]; day 0) was 1.53 mM, the Glucose ([2]; day 0) was 4.69 g/L and the Lactate ([2]; day 0) was 0 g/L. The NH4 ([2]; day 0) was 1.22 mM, the “Specific Glutamin consumption (Gln/VCD)” value ([2]; day 0) was 1.49 and the “Specific ammonia production (NH4/VCD)” value ([2]; day 0) was 1.18. For the same compound, the “Specific glucose consumption (Gluc/VCD)” value ([2]; day 0) was 4.55, the “Specific lactate production (Lac/VCD)” value ([2]; day 0) was 0.00 and the “Total Cell Density TCD” value ([2]; day 0) was 1.07 E5/ml. The Viabil. ([2]; day 0) was 96%, the “Viable Cell Density (VCD)” value ([2]; day 0) was 1.03 E5/ml and the Gln ([2]; day 3) was 0.9 mM. The Glucose ([2]; day 3) was 4.53 g/L, the Lactate ([2]; day 3) was 0.41 g/L and the NH4 ([2]; day 3) was 1.84 mM. The “Specific Glutamin consumption (Gln/VCD)” value ([2]; day 3) was 0.17, the “Specific ammonia production (NH4/VCD)” value ([2]; day 3) was 0.34 and the “Specific glucose consumption (Gluc/VCD)” value ([2]; day 3) was 0.84. The “Specific lactate production (Lac/VCD)” value ([2]; day 3) was 0.08, the “Total Cell Density TCD” value ([2]; day 3) was 5.5 E5/ml and the Viabil. ([2]; day 3) was 98%. For the same compound, the “Viable Cell Density (VCD)” value ([2]; day 3) was 5.4 E5/ml, the Gln ([2]; day 6) was 0.19 mM and the Glucose ([2]; day 6) was 3.56 g/L. For the same compound, the Lactate ([2]; day 6) was 0.6 g/L, the NH4 ([2]; day 6) was 2.89 mM and the “Specific Glutamin consumption (Gln/VCD)” value ([2]; day 6) was 0.00. The “Specific ammonia production (NH4/VCD)” value ([2]; day 6) was 0.07, the “Specific glucose consumption (Gluc/VCD)” value ([2]; day 6) was 0.09 and the “Specific lactate production (Lac/VCD)” value ([2]; day 6) was 0.02. For the same compound, the “Total Cell Density TCD” value ([2]; day 6) was 41.3 E5/ml, the Viabil. ([2]; day 6) was 97% and the “Viable Cell Density (VCD)” value ([2]; day 6) was 40 E5/ml. It also gave a Gln ([2]; day 8) of 0.27 mM, a Glucose ([2]; day 8) of 2.65 g/L and a Lactate ([2]; day 8) of 0.64 g/L. For the same compound, the NH4 ([2]; day 8) was 3.42 mM, the “Specific Glutamin consumption (Gln/VCD)” value ([2]; day 8) was 0.03 and the “Specific ammonia production (NH4/VCD)” value ([2]; day 8) was 0.33. The “Specific glucose consumption (Gluc/VCD)” value ([2]; day 8) was 0.25, the “Specific lactate production (Lac/VCD)” value ([2]; day 8) was 0.06 and the “Total Cell Density TCD” value ([2]; day 8) was 12.1 E5/ml. The Viabil. ([2]; day 8) was 87%, the “Viable Cell Density (VCD)” value ([2]; day 8) was 10.5 E5/ml and the Gln ([2]; day 11) was 0.42 mM. It also gave a Glucose ([2]; day 11) of 1.71 g/L, a Lactate ([2]; day 11) of 0.79 g/L and an NH4 ([2]; day 11) of 3.87 mM. The “Specific Glutamin consumption (Gln/VCD)” value ([2]; day 11) was 0.05, the “Specific ammonia production (NH4/VCD)” value ([2]; day 11) was 0.44 and the “Specific glucose consumption (Gluc/VCD)” value ([2]; day 11) was 0.20. The “Specific lactate production (Lac/VCD)” value ([2]; day 11) was 0.09, the “Total Cell Density TCD” value ([2]; day 11) was 18 E5/ml and the Viabil. ([2]; day 11) was 48%. The “Viable Cell Density (VCD)” value ([2]; day 11) was 8.7 E5/ml.
`O=C(O)CCC(=O)C(=O)O` [α-Keto-glutarate] gave a Viabil. ([3]; day 0) of 96%, a Viabil. ([3]; day 3) of 93% and a Viabil. ([3]; day 5) of 96%. For the same compound, the Viabil. ([3]; day 7) was 84%, the Viabil. ([3]; day 9) was 67% and the “Sp. Gluc cons.” value ([4]; day 0) was 94. For the same compound, the “Sp. NH4 prod” value ([4]; day 0) was 100 % of control, the TCD ([4]; day 0) was 100 % of control and the VCD ([4]; day 0) was 100 % of control. For the same compound, the Viabil. ([4]; day 0) was 94%, the “Sp. Gluc cons.” value ([4]; day 3) was 98 and the “Sp. Lactate prod.” value ([4]; day 3) was 70 % of control. For the same compound, the “Sp. NH4 prod” value ([4]; day 3) was 94 % of control, the TCD ([4]; day 3) was 94 % of control and the VCD ([4]; day 3) was 103 % of control. For the same compound, the Viabil. ([4]; day 3) was 96%, the “Sp. Gluc cons.” value ([4]; day 5) was 98 and the “Sp. Lactate prod.” value ([4]; day 5) was 72 % of control. For the same compound, the “Sp. NH4 prod” value ([4]; day 5) was 94 % of control, the TCD ([4]; day 5) was 103 % of control and the Viabil. ([4]; day 5) was 93%. The “Sp. Gluc cons.” value ([4]; day 7) was 95, the “Sp. Lactate prod.” value ([4]; day 7) was 72 % of control and the “Sp. NH4 prod” value ([4]; day 7) was 95 % of control. The TCD ([4]; day 7) was 96 % of control, the VCD ([4]; day 7) was 99 % of control and the Viabil. ([4]; day 7) was 90%. The “Sp. Gluc cons.” value ([4]; day 9) was 109, the “Sp. Lactate prod.” value ([4]; day 9) was 79 % of control and the “Sp. NH4 prod” value ([4]; day 9) was 103 % of control. For the same compound, the TCD ([4]; day 9) was 92 % of control, the VCD ([4]; day 9) was 92 % of control and the Viabil. ([4]; day 9) was 93%. It also gave a Viabil. ([1]; day 0, fed-batch) of 91%, a Viabil. ([1]; day 2, fed-batch) of 97% and a Viabil. ([1]; day 5, fed-batch) of 97%. It also gave a Viabil. ([1]; day 8, fed-batch) of 95%.
